Laboratory results taken from patent US7951382B2, “Methods for treatment of type 2 diabetes” (American Type Culture Collection, priority 2006, dated 2011).
Entries after “also recorded” stand apart in the source; their conditions may differ.

Tests used:
[1] = system: STZ-induced diabetic C57BL/6 mice; assay: Multiple low dose streptozotocin (STZ)-induced murine model of Diabetes, efficacy of D3 peptide; format: in vivo, male C57BL/6 mice; conditions: for mortality / survival during the course of the study: experiment 1, to day 36, FIG. 15
Procedure: Peptide treatment also delayed the onset of Diabetes (mean blood glucose levels≧300 mg/dL) by approximately 14 days, and reduced peak BG levels by 40% (p<0.01) in treated animals. This naturally occurring peptide may represent a safer alternative to small molecule kinase inhibitors for the control of IDDM and associated complications.
Streptozotocin (Streptozocin, STZ, Zanosar) is a naturally occurring glucosamine-nitrosourea compound that is toxic to insulin producing beta cells in the pancreas. This alkylating agent bears enough similarity to the molecular structure of glucose to be readily transported into beta cells by the highly abundant glucose GLU2 glucose transporter protein. Once inside the cell STZ causes damage to the DNA, resulting in a loss of cellular function.
Twenty five male C57BL/6 mice aged approximately 6 weeks were randomized into 3 groups of 10, 10 and 5 animals. Beginning on day −6, non-fasting blood glucose (BG) levels for all animals were determined twice weekly using an Ascencia Contour blood glucose reader (Beyer). […] Groups 1 and 3 were intraperitoneally administered 200 μl sterile water alone. Injections continued in a similar fashion every 3 days for the duration of the experiment. Beginning on day 0, Groups 2 and 3 also received 50 mg/kg of STZ in 200 μl of sterile water via the intraperitoneal route for 5 consecutive days. Group 1 animals received a mock intraperitoneal injection of 200 μl of sterile water during the same period (see Table 17). Animals were allowed access to food and water ad libitum and this treatment schedule was followed until day 36.
In experiment 1, animals were fed normal mouse chow for the duration of the experiment and a fresh vial of STZ was used. Blood glucose measurements for each individual animal were recorded twice weekly for the duration of the experiment. The blood glucose levels in the non diabetic control animals remained stable at approximately 150 mg/dl. However, immediately following the administration of STZ to the two experimental groups, blood glucose levels increased steadily over time and reached a maximum at approximately day 15. No difference in blood glucose levels were observed between D3 treated and untreated STZ-induced animals.
For the duration of the experiment, the mean blood glucose level of normal control animals was approximately 150 mg/dl. For the purposes of this study, a blood glucose reading in STZ-induced animals more than 2-fold higher than normal (i.e. ≧300 mg/dl) was considered to indicate a diabetic animal. Using this criterion, the incidence and time to onset of diabetes in the treated and untreated STZ groups was determined. […] For both STZ groups, the onset of Diabetes began as early as day 4 post STZ administration. All of the untreated STZ animals were classed as diabetic by day 10.
In experiment 2, animals were fed a high carbohydrate diet (˜50% sucrose) for the duration of the experiment. An older stock vial of STZ was used. Blood glucose measurements for each individual animal were recorded twice weekly for the duration of the experiment. As expected, the blood glucose levels in the non diabetic control animals remained below 150 mg/dl. […] This trend was maintained for the entire duration of the experiment.
For the duration of the experiment, the mean blood glucose level of normal control animals was approximately 150 mg/dl. For the purposes of this study, a blood glucose reading in STZ-induced animals more than 2-fold higher than normal (i.e. ≧300 mg/dl) was considered to indicate a diabetic animal. Using this criterion, the incidence and time to onset of Diabetes in the treated and untreated STZ groups was determined. […] For the untreated STZ group, Diabetes onset began as early as day 8 post STZ administration, and 100% of animals were diabetic by day 18. […] By day 36 only 70% of animals in the D3 treated group were classified as diabetic. […]

[2] = system: 12 Kinases (kinases involved in insulin receptor signaling pathways); assay: NovaScreen ProfilerPro kinase panel / screen of 59 receptors and enzymes at 1 μM; format: biochemical; conditions: D3 peptide 1 μM, preliminary results
Procedure: (§1) Kinase assays were performed using the ProfilerPro kinase panel kit available from NovaScreen and were validated using the KinaseProfiler enzyme panel available from Millipore.

[3] = system: 12 Kinases (kinases involved in insulin receptor signaling pathways); assay: Millipore KinaseProfiler enzyme panel; format: biochemical; conditions: D3 peptide 0.1 uM and 1 uM, same 12 kinases
Procedure: as §1

kinases = kinases (Homo sapiens, UniProt P15056, V600E); assay: Invitrogen SelectScreen biochemical kinase profiling, Z'-LYTE assay; conditions: kinase BRAF V599E
kinases, sequence (P15056 whole entry V600E): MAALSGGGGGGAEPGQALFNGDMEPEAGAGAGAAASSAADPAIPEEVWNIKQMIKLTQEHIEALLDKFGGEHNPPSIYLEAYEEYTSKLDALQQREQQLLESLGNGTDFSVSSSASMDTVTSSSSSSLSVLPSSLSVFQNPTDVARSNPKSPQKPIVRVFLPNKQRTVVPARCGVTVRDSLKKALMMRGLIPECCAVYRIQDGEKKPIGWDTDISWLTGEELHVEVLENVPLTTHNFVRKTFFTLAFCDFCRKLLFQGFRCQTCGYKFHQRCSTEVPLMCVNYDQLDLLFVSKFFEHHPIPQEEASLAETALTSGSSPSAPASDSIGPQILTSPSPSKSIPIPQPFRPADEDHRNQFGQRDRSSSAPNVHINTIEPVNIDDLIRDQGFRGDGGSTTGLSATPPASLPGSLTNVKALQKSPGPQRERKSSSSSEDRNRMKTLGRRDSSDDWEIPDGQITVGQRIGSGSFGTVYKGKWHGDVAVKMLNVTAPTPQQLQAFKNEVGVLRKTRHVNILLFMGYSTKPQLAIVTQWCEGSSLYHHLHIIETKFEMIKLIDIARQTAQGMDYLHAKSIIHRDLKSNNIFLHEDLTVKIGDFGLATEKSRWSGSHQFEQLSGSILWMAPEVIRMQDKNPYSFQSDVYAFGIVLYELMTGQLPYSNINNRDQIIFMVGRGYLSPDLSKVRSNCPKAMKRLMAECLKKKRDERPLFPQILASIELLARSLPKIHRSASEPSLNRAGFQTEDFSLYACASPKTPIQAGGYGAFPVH
Excerpt: The Z′-LYTE® biochemical assay employs a fluorescence-based, coupled-enzyme format and is based on the differential sensitivity of phosphorylated and non-phosphorylated peptides to proteolytic cleavage. The peptide substrate is labeled with two fluorophores—one at each end—that make up a FRET pair. In the primary reaction, the kinase transfers the gamma-phosphate of ATP to a single tyrosine, serine or threonine residue in a synthetic FRET-peptide. In the secondary reaction, a site-specific protease recognizes and cleaves non-phosphorylated FRET-peptides. Phosphorylation of FRET-peptides suppresses cleavage by the Development Reagent. Cleavage disrupts FRET between the donor (i.e., coumarin) and acceptor (i.e., fluorescein) fluorophores on the FRET-peptide, whereas uncleaved, phosphorylated FRET-peptides maintain FRET.
Both cleaved and uncleaved FRET-peptides contribute to the fluorescence signals and therefore to the Emission Ratio. The extent of phosphorylation of the FRET-peptide can be calculated from the Emission Ratio.
Test Compounds are screened in 1% DMSO (final) in the well. […] All ATP Solutions are diluted to a 4× working concentration in Kinase Buffer (50 mM HEPES pH 7.5, 0.01% BRIJ-35, 10 mM MgCl2, 1 mM EGTA). ATP Km apparent is previously determined using a Z′-LYTE® assay.
This control yields 100% cleaved peptide in the Development Reaction. […]

[4] = experiment 1, normal mouse chow, fresh vial of STZ
[5] = experiment 2, high carbohydrate diet

SGRPPMIVWFNRPFLIAVSHTHGQTILFMAKVINPVGA [D3 peptide, SGRPPMIVWFNRPFLIAVSHTHGQTILFMAKVINPVGA]
reduction of peak BG levels ([1]; 36-day prophylactic study, STZ-induced male C57BL/6 mice, 1 mg/kg every 3 days, p<0.01): 40%
delay of the onset of Diabetes (mean blood glucose levels≧300 mg/dL) ([1]; 36-day prophylactic study, STZ-induced male C57BL/6 mice, 1 mg/kg of D3 peptide every 3 days): approximately 14 days
time to onset or rate of disease compared to untreated diabetic controls ([1]; FIG. 14, STZ treated animals (experiment 1)): No significant differences
blood glucose levels, D3 treated versus untreated STZ-induced animals [1, 4]: No difference
first signs of Diabetes (blood glucose ≧300 mg/dl), day post STZ administration [1, 4]: 4 days
rate of disease progression (slope of the graph) versus untreated STZ group [1, 4]: essentially similar
time to establish Diabetes in 100% of animals [1, 4]: 15 days
mortality / survival during the course of the study [1]: increases survival
mortality / survival during the course of the study ([1]; listed as D3): no mortality was observed
animals classified as diabetic by day 36 [1, 5]: 70%
deaths from diabetic complications or toxic events related to peptide or STZ treatment [1, 5]: No animals succumbed to diabetic complications or experienced any toxic events
delay of first signs of diabetes versus untreated animals [1, 5]: four
rate of disease progression (slope of the graph) [1, 5]: much less pronounced
mean blood glucose levels, D3 treated versus untreated STZ-induced animals ([1]; experiment 2, high carbohydrate diet (~50% sucrose), older stock vial of STZ, 36 days, FIG. 16): higher than those observed in diabetic animals treated with D3 peptide; also recorded: marked reduction
day on which significant differences (p≦0.05) in mean blood glucose versus untreated diabetic animals were first observed ([1]; experiment 2, high carbohydrate diet, D3 peptide every 3 days): 10 days
inhibition of kinases of the panel [2]: specific inhibition activities to 7 kinases
inhibition of kinases of the panel (confirmation) [3]: specific inhibition activity on 4 out of 7 kinases
% Inhibition mean (kinases): 99.79%
